Reference: patent US5413991A (Ajinomoto Co., Inc., priority 1991, dated 1995)

Legend:
[1] = biological target: chitinase from Trichoderma sp. (Chitinase T-1); experiment: Assay for chitinase inhibitory activity, chitinase from Trichoderma sp.; assay type: biochemical; details: McIlvaine buffer pH 5.2, substrate 4MBTC
Experimental: The chitinase from Trichoderma sp. was provided for use in the assay described in procedure (ii) below by diluting commercially available Chitinase T-1 (manufactured by Asahi Industry Co., Ltd.) with MclIvanine buffer (obtained by adding 0.2M aqueous disodium hydrogen phosphate to 0.1M aqueous citric acid and adjusting the pH to 5.2) to a concentration of 50 μg/ml.
(§1) In a 20 ml vial bottle, 50 μl of the chitinase solution from Candida albicans prepared as described above,s 50 μl of 100 μg/ml aqueous 4-methylumbelliferyl β-D-N,N',N"-triacetyl-chitotrioside (hereinafterabbreviated as 4MBTC, SIGMA Co.), 75 μl of 50 mM bis-Tris buffer (pH 6.5) and 25 μl of 0.1N acetic acid were added and mixed. The reaction was carried out at 37° C. for 30 minutes. As a blank, the reaction was carried out in an identical manner, substituting 50 mM bis-Tris buffer (pH 6.5) for the enzyme solution. After the reaction, sufficient 0.5M glycine-sodium hydroxide buffer (pH 10.4) was added to make the total volume 5 ml. Then, the fluorescent intensity was determined with a fluorophotometer (manufactured by Hitachi Ltd., MPF-4). The excited wavelength was 350 nm, and the fluorescent wavelength was 400 nm. Chitinase activity was determined using the difference in the fluorescent intensity between the read-out data from the sample containing the enzyme and the blank read-out data.
(§2) In determining the inhibitory activity of AJI9463A, AJI9463B, AJI9463C, and the partially hydrolyzed disaccharides thereof, each compound was dissolved in 0.1N acetic acid, and 25 μl of the compound solution was substituted for the 25 μl of 0.1N acetic acid in the reaction system described above. Further, in determining the inhibitory activity against the chitinases of baker's yeast and Trichoderma sp., the assay was performed by changing the buffer in the reaction system described above from 50 mM bis-Tris buffer (pH 6.5) to 0.1M citrate buffer (pH 3.0) and MclLvanine buffer (pH 5.2), respectively.

[2] = test system: endo-type chitinase of insects; details: background statement; cited from earlier work
[3] = test system: chitinase from Candida albicans; experiment: Assay for chitinase inhibitory activity, chitinase from Candida albicans (4MBTC fluorescence); assay type: biochemical, Candida albicans ATCC 10231; details: for Chitinase Inhibitory Activity IC50, C. albicans: bis-Tris buffer pH 6.5, 37° C., 30 minutes, substrate 4MBTC; for Inhibitory activity against chitinase derived from Candida albicans, in words: comparison in words
Experimental: The chitinase from Candida albicans (C. albicans) was prepared by the following method. Firstly, a Sabouraud medium (pH 5.6) composed of 4 g of glucose, 1 g of polypeptone and 100 ml of water was prepared and placed in an Erlenmeyer flask of 500 ml volume. After sterilization at 120° C. for 20 minutes, one platinum loop of slant culture cells of C. albicans ATCC 10231 was inoculated into the medium, and then shake cultured at 37° C. for 2 days to obtain a primary seed mother liquor.
In a second procedure, 1 liter of Sabouraud medium having the same composition as above was prepared. Separately, 100 ml of the medium was added to each of ten 500 ml Erlenmeyer flasks, then the flasks and their contents were sterilized at 120° C. for 20 minutes. Thereafter, 2 ml of the primary seed mother liquor described above was added to each flask. The flask was shaken at 37° C. for 2 days to obtain a secondary seed mother liquor.
In a third procedure, 50 liters of Sabouraud medium having the same composition as described above was prepared and added to a culture tank of 100 liter volume. The tank and its contents were sterilized at 120° C. for 30 minutes. In the tank, 1 liter of the secondary seed mother liquor described above was added. Shake culturing was then conducted at 37° C. for 15 hours. At this stage, the stirring velocity was 140 rpm and the aerial rate was 10 l/min. The resulting culture broth was centrifuged by a sharpless centrifuging machine to recover the cells. The wet weight of the thus obtained cells was 250 g.
The cells were suspended in 800 ml of a buffer for cell homogenization (50 mM bis-Tris, 0.25M saccharose, 1 mM disodium ethylenediaminetetraacetate, pH 6.5). The suspension was twice passed through a Dyno-mill disintegrator (beads: MK-2GX, 0.25-0.5 mm) to disrupt the cells, and the supernatant was recovered. The supernatant was centrifuged at 9000 g for 30 minutes, then further super-centrifuged at 152,000 g for an hour. The supernatant thereof was recovered, and was concentrated to about one-fifth of the volume by ultrafiltration (Toyo Ultrafilter UP-20), having an excluding limiting molecular weight of 20,000. The concentrate was used as the crude chitinase solution from Candida albicans in the assay described in procedure (ii) below.
as §1, §2

fungi-derived chitinase = details: background statement; cited from earlier work
[4] = test system: silkworm-derived chitinase; details: background statement; cited from earlier work
[5] = biological target: T1, chitinase from baker's yeast (S cerevisiae) (Saccharomyces cerevisiae, UniProt P29029); experiment: Assay for chitinase inhibitory activity, chitinase from baker's yeast; assay type: biochemical; details: 0.1M citrate buffer pH 3.0, substrate 4MBTC
T1 construct: was shaken at 30° C. for 2 hours at 120 spm to extract the enzyme; host or cells: commercial baker's yeast, digitonin extract
T1 sequence (P29029 21-562): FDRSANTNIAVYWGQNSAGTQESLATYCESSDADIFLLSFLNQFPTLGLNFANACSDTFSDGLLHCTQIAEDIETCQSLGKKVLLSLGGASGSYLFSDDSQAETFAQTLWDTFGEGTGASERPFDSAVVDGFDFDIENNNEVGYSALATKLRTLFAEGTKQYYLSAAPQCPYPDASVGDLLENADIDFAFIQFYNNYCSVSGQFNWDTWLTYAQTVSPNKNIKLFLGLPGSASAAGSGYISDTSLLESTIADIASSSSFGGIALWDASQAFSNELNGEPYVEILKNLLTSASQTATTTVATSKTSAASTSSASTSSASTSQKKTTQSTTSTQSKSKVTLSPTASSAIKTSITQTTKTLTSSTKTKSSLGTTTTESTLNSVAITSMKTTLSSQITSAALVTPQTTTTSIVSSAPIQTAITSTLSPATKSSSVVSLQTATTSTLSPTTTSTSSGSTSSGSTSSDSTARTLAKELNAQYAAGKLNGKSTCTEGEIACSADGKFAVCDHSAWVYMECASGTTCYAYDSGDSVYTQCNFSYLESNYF
Experimental: The chitinase from baker's yeast (S cerevisiae) was prepared by the following method. Firstly, 400 g of baker's yeast (manufactured by Kanegafuchi Chemical Industry Co., Ltd.) was suspended in buffer for enzyme extraction (0.1% digitonin: manufactured by Wako Pure Chemical Industry Co., Ltd.), 0.1% β-mercaptoethanol and 2 liters of 25 mM MES (manufactured by Nakarai Chemical Co., Ltd.), and was shaken at 30° C. for 2 hours at 120 spm to extract the enzyme. The extract was centrifuged at 12,000 g for 10 minutes and the supernatant was recovered. The supernatant was concentrated to about one-fifth of the volume by ultrafiltration (UP-20). After 800 ml of sodium citrate buffer (obtained by adding 0.15M aqueous sodium citrate to 0.15M aqueous citric acid, and adjusting the pH to 3.0) was added to the concentrate, the precipitates were removed by centrifugation (0° C., 12,000 g, 10 minutes). The supernatant was again concentrated by ultrafiltration (UP-20) to about 80 ml. The resulting concentrate was used as the chitinase from baker's yeast in the assay described in procedure (ii) below.
as §1, §2

[6] = test system: human leukemia cells K562; experiment: Cytotoxicity, human leukemia cells K562; assay type: cell-based; details: 1 mg/ml, 37° C., 4 days, microscopic observation
Experimental: (§3) Six separate samples of human leukemia cells K562, inoculated in RPMI 1640 medium supplemented with 10% calf fetal serum (1×10^5 counts/ml) were prepared, and AJI9463A, AJI9463B, AJI9463C and each of the partially hydrolyzed disaccharides thereof were respectively added thereto, resulting in a concentration of 1 mg/ml. Stationary culture was conducted at 37° C. for 4 days. The human leukemia cell K562 culture was observed microscopically.

[7] = test system: Candida albicans (ATCC 10231); experiment: Effects on growth of Candida albicans; assay type: cell-based; details: 50 μg/ml, Sabouraud dextrose medium, 37° C., 6 and 9 hours after inoculation, microscopic observation
Experimental: Samples of Candida albicans (ATCC 10231) were precultured in Sabouraud dextrose medium. Each of seven large test tubes containing 5 ml of Sabouraud dextrose medium were charged, respectively, with 50 μg/ml of AJI9463A, AJI9463B, AJI9463C, and the partially hydrolyzed disaccharides thereof and medium containing no active inhibitory component. The preculture was then inoculated into the media in the test tubes. The test tubes were capped with a cotton stopper, and incubated at 37° C. at 120 spm. The change in the subsequent culture with respect to time was observed. Observations were made microscopically, sampling the medium at the time when the culture started, and 6 and 9 hours thereafter.

[8] = test system: mouse ascites breast cancer cells FM3A; experiment: Cytotoxicity, mouse ascites breast cancer cells FM3A; assay type: cell-based; details: 1 mg/ml, 37° C., 4 days, microscopic observation
Experimental: as §3, with “mouse ascites breast cancer” for “human leukemia”, “FM3A,” for “K562,”, “Dulbeccol's modified MEM” for “RPMI 1640”, “cultured mouse ascites breast cancer cells FM3A were” for “human leukemia cell K562 culture was”

Chitinase Inhibitory Activity IC50, Trichoderma sp. [1] [µg/mL] | Chitinase Inhibitory Activity IC50, C. albicans [3] [µg/mL] | IC50 [5] [µM] | SMILES | Inhibition of endo-type chitinase of insects [2] | Inhibitory activity against fungi-derived chitinase (fungi-derived chitinase) | Inhibition of silkworm-derived chitinase [4] | Growth inhibition of human leukemia cells K562 (cytotoxicity) [6] | Fungal growth of Candida albicans [7] | Inhibitory activity against chitinase derived from Candida albicans, in words [3] | Growth inhibition of mouse ascites breast cancer cells FM3A (cytotoxicity) [8]
> 50.0 | 0.9 | > 493 | CNC1=NC2C(O)C(O[C@@H]3O[C@H](CO)[C@@H](O)[C@@H](O)[C@H]3NC(C)=O)C(CO)C2O1 (some centres unmarked) | – | – | – | – | – | – | –
> 50.0 | 1.3 | > 477 | CC(=O)N[C@H]1[C@H](OC2C(O)C3N=C(N(C)C)OC3C2CO)O[C@H](CO)[C@@H](O)[C@@H]1O (some centres unmarked) | – | – | – | – | – | – | –
> 50.0 | 1.0 | > 493 | CNC1=NC2C(O)C(O[C@@H]3O[C@H](CO)[C@@H](O)[C@H](O)[C@H]3NC(C)=O)C(CO)C2O1 (some centres unmarked) | – | – | – | – | – | – | –
0.8 | 3.4 | 49.2 | COC[C@H]1O[C@@H](O[C@H]2[C@H](O)[C@@H](NC(C)=O)[C@H](OC3C(O)C4N=C(N(C)C)OC4C3CO)O[C@@H]2CO)[C@H](NC(C)=O)[C@H](O)[C@@H]1O (some centres unmarked) [AJI9463C] | – | – | – | No growth inhibition was noted at all | somewhat inhibited | superior to that of allosamidin and methylallosamidin | No growth inhibition was noted at all
1.6 | 0.8 | 0.803 | CNC1=NC2C(O)C(O[C@@H]3O[C@H](CO)[C@@H](O[C@@H]4O[C@H](COC)[C@@H](O)[C@@H](O)[C@H]4NC(C)=O)[C@H](O)[C@H]3NC(C)=O)C(CO)C2O1 (some centres unmarked) [AJI9463B] | – | – | – | No growth inhibition was noted at all | somewhat inhibited | superior to that of allosamidin and methylallosamidin | No growth inhibition was noted at all
1.3 | 0.6 | 0.642 | CNC1=NC2C(O)C(O[C@@H]3O[C@H](CO)[C@@H](O[C@@H]4O[C@H](COC)[C@@H](O)[C@@H](O)[C@H]4NC(C)=O)[C@@H](O)[C@H]3NC(C)=O)C(CO)C2O1 (some centres unmarked) [AJI9463A] | – | – | – | No growth inhibition was noted at all | somewhat inhibited | most potent inhibitory activity of any known compound | No growth inhibition was noted at all

SMILES | Chitinase Inhibitory Activity IC50, Trichoderma sp. [1] [µg/mL] | Chitinase Inhibitory Activity IC50, C. albicans [3] [µg/mL] | IC50 [5] [µM] | Inhibition of endo-type chitinase of insects [2] | Inhibitory activity against fungi-derived chitinase (fungi-derived chitinase) | Inhibition of silkworm-derived chitinase [4] | Growth inhibition of human leukemia cells K562 (cytotoxicity) [6] | Fungal growth of Candida albicans [7] | Inhibitory activity against chitinase derived from Candida albicans, in words [3] | Growth inhibition of mouse ascites breast cancer cells FM3A (cytotoxicity) [8]
CC(=O)N[C@H]1[C@H](O[C@H]2[C@@H](O)[C@@H](NC(C)=O)[C@H](O[C@H]3[C@H](O)[C@H]4N=C(N(C)C)O[C@H]4[C@@H]3CO)O[C@@H]2CO)O[C@H](CO)[C@@H](O)[C@H]1O [Allosamidin, allosamidin] | 0.8 | 6.2 | – | strongly inhibit | weak inhibitory activity | inhibitors | – | – | – | –
COC[C@H]1O[C@@H](O[C@H]2[C@@H](O)[C@@H](NC(C)=O)[C@H](OC3C(O)C4N=C(N(C)C)OC4C3CO)O[C@@H]2CO)[C@H](NC(C)=O)[C@H](O)[C@@H]1O (some centres unmarked) [Methylallosamidin, methylallosamidin, reference compound] | 1.2 | 8.8 | 58.4 | strongly inhibit | weak inhibitory activity | inhibitors | – | – | – | –
